In US9315544B2, “Method of treating eosinophilia by administering an immunomodulating peptide” (National Tsing Hua University, priority 2012, dated 2016):

Legend:
[1] = tested on: mite-induced airway inflammation; experiment: Lung histopathology (H&E), peri-bronchiolar and alveolar inflammation scores; assay type: in vivo, BALB/c mouse
Description: (§1) FIG. 4 illustrates experimental design. All groups except control group were immunized with mite crude extract allergen on days 1 and 8, then mite crude extract allergen intratracheally on day 15 in all mite treated group, BALB/c mouse were divided into six groups (1) control group (PBS), (2) mites delivered intratracheally (mIT, mite on day 15) alone, (3) CMP intranasal (eIN, CMP on days 1 to 22) alone, (4) preventive-treatment group (eIN+mIT, CMP on days 1 to 14, mite on day 15) (5) therapy-treatment group (mIT+eIN, mite on day 15, CMP on days 15 to 22), and (6) preventive- and therapeutic-treatment group (eIN+mIT+eIN, CMP on days 1 to 22, mite on day 15).
FIG. 6A-6B illustrates inhibitory effect of CMP on influx of inflammatory cells. […] (A) Scores for peri-bronchiolar, alveolar inflammation and (B) PAS were determined based on the histological sections. Each result was expressed as the mean±S.D., n=4. ***, P<0.001. […]
The formalin-fixed lung sections stained with hematoxylin and eosin (H&E) were assigned a unit value for alveolar, peri-bronchiolar, and total inflammation by computing the means of three independent scores for three randomly selected fields. […] For evaluating the hyperplasia goblet cells, medium-sized airways were assessed in sections stained with periodic acid-Schiff (PAS) stain. Two reviewers independently and randomly scored 10 fields of each slide. […]

CCL-11 = experiment: Cytokine ELISA of lung protein extract (CCL-11); assay type: in vivo, BALB/c mouse; conditions: eIN+mIT, mIT+eIN and eIN+mIT+eIN groups
Description: as §1
FIG. 9 illustrates inhibitory effect of CMP on lung protein extract. Lung protein extracts from different groups of mouse were assayed for the indicated cytokines. Data represent one of three independent experiments. Levels of CCL-11, IL-5, IL-13 and IL-17A/F levels in lung protein extracts from mouse from treatment groups were measured by Enzyme-linked immunosorbent assay (ELISA). Each result was expressed as the mean±S.D., n=4. **, P<0.01, ***, P<0.001. […]
Levels of cytokines from lung protein extract were measured by ELISA. […] The microplates were read at 450 nm with an ELISA reader (Thermo Labsystems, Waltham, Mass., USA). […]

NYRWRCKNQN (CMP)
effect on peribronchiolar, alveolar inflammation and goblet cells hyperplasia ([1]; eIN+mIT+eIN compared with eIN+mIT and mIT+eIN group): more potently suppressive effect
peri-bronchiolar and alveolar scores compared with mIT group ([1]; eIN+mIT+eIN group (CMP days 1 to 22)): significantly lower
CCL-11 in lung protein extract compared with mIT group (CCL-11): lower concentrations
